From patent publication US9796706B2, “Inhibitors of Jun N-terminal kinase” (IMAGO PHARMACEUTICALS, INC., priority 2009, dated 2017)

Tests used:
Type in all cases: biochemical
Conditions in all cases: procedures of Example 14 (TR-FRET)
[1] = target: JNK3 (Homo sapiens (Human), UniProt P53779); assay: JNK3 TR-FRET kinase assay (Example 14)
Experimental: (§1) 14.3. Active JNK 1, 2 and 3 TR-FRET Assay
(§2) (1) Assay buffer #1 with 0.0025% Tween and 1 mM DTT was prepared using JNK buffer stock solution.
(§3) (2) Assay buffer #2 with 0.025% BSA was prepared using the assay buffer #1.
(§4) (3) Test compound solution preparation: 5× compound solution was prepared using assay buffer #1 with 5% DMSO. The compound solution (10 μl/well) was added to a 384-well plate (Corning, Cat No. 3654).
(§5) (4) aJNK1, 2 or 3 preparation: aJNK stock (100 μg/ml) at −80° C. was thawed on ice and an aJNK (1.6 ng/ml) solution was prepared using assay buffer #2. The aJNK solution (20 μl/well) was added to the plate and the plate was shaken. The enzyme was incubated with the compound at RT for 10 min. (5) ATP/substrate solution preparation: ATP and substrate stocks were thawed on ice. 2.5×ATP/substrate (e.g., 25 μM or 2.5 mM ATP/50 nM EPIW-1) was prepared using assay buffer #1. The ATP/substrate (20 μl/well) was added to the plate and the plate was shaken. The plate was incubated at RT for 15 min. Note: In an exemplary assay, the final ATP concentration was about 1 mM. (6) EDTA preparation: 30 mM EDTA was prepared using 0.5M EDTA stock and assay buffer #1. The EDTA (10 μl/well) was added to the plate to quench the enzyme reaction and the plate was shaken well. (7) Detection reagent preparation: Eu-63 and SA-XL stocks were thawed on ice. 4× Eu-63/SA-XL (2 nM Eu-63/9.4 nM SA-XL) was prepared using JNK detection buffer. The Eu-63/SA-XL solution (20 μl/well) was added to the plate and the plate was shaken. The plate was incubated at RT for 1 hr before reading the plate on LJL using ratiometric method named HTRF.
(§6) 14.4. Coupled JNK 1, 2 and 3 TR-FRET Assay
(§7) (1) Assay buffer with 0.0025% Tween, 0.01% BSA, and 1 mM DTT was prepared using JNK buffer stock solution.
(§8) (2) Test compound solution preparation: 5× compound solution, including EDTA background, was prepared using assay buffer with 5% DMSO. The compound solution (10 μl/well) was added to a 384-well plate (Corning, Cat No. 3654).
(§9) (3) uJNK1,2, or 3 activation reaction preparation: uJNK activation solution was prepared using assay buffer (1.6 ng/ml MKK4, 1.6 ng/ml MKK7, 16 ng/ml uJNK, and 20 uM ATP final). The uJNK activation solution (35 μl/well) was added to the plate, the plate was shaken, and the reaction mixture was incubated with compound at 30° C. for 60 min. (4) c-Jun substrate solution preparation: 50 nM EPIW-1, c-Jun peptide, was prepared using assay buffer (15 nM final). The EPIW-1 solution (15 μl/well) was added to the plate, the plate was shaken and incubated at 30° C. for 60 min. (5) EDTA preparation: 30 mM EDTA was prepared using 0.5M EDTA stock and assay buffer. The EDTA (10 μl/well) was added to the plate to quench the enzyme reaction and the plate was shaken well. (6) Detection reagent preparation: Eu-73 and SA-XL stocks were thawed on ice. 4× Eu-73/SA-XL (2 nM Eu-73/9.4 nM SA-XL) were prepared using JNK detection buffer. The Eu-73/SA-XL solution (20 μl/well) was added to the plate. The plate was shaken and incubated at RT for 1 hr before reading the plate on LJL using ratiometric method named HTRF.

[2] = target: JNK1 (Homo sapiens (Human), UniProt P45983); assay: JNK1 TR-FRET kinase assay (Example 14)
Experimental: as §1, §2, §3, §4, §5, §6, §7, §8, §9

[3] = target: JNK2 (Homo sapiens (Human), UniProt P45984); assay: JNK2 TR-FRET kinase assay (Example 14)
Experimental: as §1, §2, §3, §4, §5, §6, §7, §8, §9

Chain of JNK1 (P45983 other isoform, or with tags, fused parts or gaps isoform P45983-2, species assumed): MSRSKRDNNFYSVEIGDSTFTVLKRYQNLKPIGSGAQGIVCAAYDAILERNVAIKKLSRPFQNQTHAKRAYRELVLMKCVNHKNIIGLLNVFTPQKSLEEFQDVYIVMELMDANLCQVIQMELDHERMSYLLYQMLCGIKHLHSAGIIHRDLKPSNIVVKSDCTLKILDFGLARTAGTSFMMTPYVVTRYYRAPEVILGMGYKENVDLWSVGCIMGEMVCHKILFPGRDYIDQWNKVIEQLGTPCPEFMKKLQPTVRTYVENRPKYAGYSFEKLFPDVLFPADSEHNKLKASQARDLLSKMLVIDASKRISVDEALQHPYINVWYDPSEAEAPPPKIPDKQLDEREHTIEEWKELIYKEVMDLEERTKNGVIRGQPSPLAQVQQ
Chain of JNK3 (P53779 whole entry, species assumed): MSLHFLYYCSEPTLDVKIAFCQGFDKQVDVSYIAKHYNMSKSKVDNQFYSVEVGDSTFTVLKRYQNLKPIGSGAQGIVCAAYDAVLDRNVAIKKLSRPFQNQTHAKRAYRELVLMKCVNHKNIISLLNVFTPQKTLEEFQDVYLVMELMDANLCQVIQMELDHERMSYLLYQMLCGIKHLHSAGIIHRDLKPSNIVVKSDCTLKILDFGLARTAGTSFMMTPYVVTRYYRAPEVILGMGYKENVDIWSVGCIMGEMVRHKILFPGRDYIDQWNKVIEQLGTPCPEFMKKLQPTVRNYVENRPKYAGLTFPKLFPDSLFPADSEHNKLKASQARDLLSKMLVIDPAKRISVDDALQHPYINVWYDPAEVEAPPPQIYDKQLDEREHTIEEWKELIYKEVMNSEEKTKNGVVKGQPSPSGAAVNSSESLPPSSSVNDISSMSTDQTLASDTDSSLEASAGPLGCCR
Chain of JNK2 (P45984 whole entry, species assumed): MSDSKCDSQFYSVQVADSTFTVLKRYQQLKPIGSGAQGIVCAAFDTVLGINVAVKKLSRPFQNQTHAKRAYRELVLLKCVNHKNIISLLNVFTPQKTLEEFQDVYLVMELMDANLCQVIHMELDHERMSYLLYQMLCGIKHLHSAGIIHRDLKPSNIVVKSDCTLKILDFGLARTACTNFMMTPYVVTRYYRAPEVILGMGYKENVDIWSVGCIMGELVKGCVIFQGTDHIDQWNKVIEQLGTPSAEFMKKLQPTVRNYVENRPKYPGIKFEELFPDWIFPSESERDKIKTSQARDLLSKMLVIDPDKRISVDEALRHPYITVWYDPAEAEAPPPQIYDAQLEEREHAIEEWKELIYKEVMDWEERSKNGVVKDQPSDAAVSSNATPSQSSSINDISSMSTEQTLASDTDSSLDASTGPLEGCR

| IC50 [1] [nM] | IC50 [2] [nM] | IC50 [3] [nM] | SMILES |
| --- | --- | --- | --- |
| 100 to 10000 | < 100 | 100 to 10000 | O=C(Cn1c(=O)ccc2cc(F)c(F)cc21)Nc1sccc1-c1ncon1 [N-(3-(1,2,4-oxadiazol-3-yl)thiophen-2-yl)-2-(6,7-difluoro-2-oxoquinolin-1(2H)-yl)acetamide] |
| 100 to 10000 | < 100 | 100 to 10000 | O=C(CN1C(=O)CCc2ccccc21)Nc1sccc1-c1ncn[nH]1 [N-(3-(1H-1,2,4-triazol-5-yl)thiophen-2-yl)-2-(2-oxo-3,4-dihydroquinolin-1(2H)-yl)acetamide] |
| 100 to 10000 | 100 to 10000 | 100 to 10000 | N#Cc1csc(NC(=O)CN2C(=O)CCc3ncccc32)c1-c1nc2ccccc2s1 [N-(3-(benzo[d]thiazol-2-yl)-4-cyanothiophen-2-yl)-2-(2-oxo-3,4-dihydro-1,5-naphthyridin-1(2H)-yl)acetamide] |
| < 100 | < 100 | 100 to 10000 | O=C(Cc1cccc2cnccc12)Nc1scnc1-c1cscn1 [N-(4,4′-bithiazol-5-yl)-2-(isoquinolin-5-yl)acetamide] |
| < 100 | < 100 | < 100 | Cn1cnc(-c2c(Br)csc2NC(=O)CN2C(=O)CCc3ncccc32)n1 [N-(4-bromo-3-(1-methyl-1H-1,2,4-triazol-3-yl)thiophen-2-yl)-2-(2-oxo-3,4-dihydro-1,5-naphthyridin-1(2H)-yl)acetamide] |
| 100 to 10000 | 100 to 10000 | 100 to 10000 | O=C(Cc1ccc2ccc(C(F)(F)F)nc2c1)Nc1scc(Br)c1-c1nc[nH]n1 [N-(4-bromo-3-(1H-1,2,4-triazol-3-yl)thiophen-2-yl)-2-(2-(trifluoromethyl)quinolin-7-yl)acetamide] |
| < 100 | < 100 | 100 to 10000 | O=C(Cc1cccc2ncc(C(F)(F)F)cc12)Nc1scc(Br)c1-c1nc[nH]n1 [N-(4-bromo-3-(1H-1,2,4-triazol-3-yl)thiophen-2-yl)-2-(3-(trifluoromethyl)quinolin-5-yl)acetamide] |
| 100 to 10000 | 100 to 10000 | 100 to 10000 | O=C(Cc1cccc2cc(C(F)(F)F)cnc12)Nc1scc(Br)c1-c1nc[nH]n1 [N-(4-bromo-3-(1H-1,2,4-triazol-3-yl)thiophen-2-yl)-2-(3-(trifluoromethyl)quinolin-8-yl)acetamide] |
| < 100 | < 100 | < 100 | O=C(Cc1cccc2ncc(F)cc12)Nc1scc(Br)c1-c1nc[nH]n1 [N-(4-bromo-3-(1H-1,2,4-triazol-3-yl)thiophen-2-yl)-2-(3-fluoroquinolin-5-yl)acetamide] |
| 100 to 10000 | < 100 | 100 to 10000 | O=C(Cc1cccc2cc(F)cnc12)Nc1scc(Br)c1-c1nc[nH]n1 [N-(4-bromo-3-(1H-1,2,4-triazol-3-yl)thiophen-2-yl)-2-(3-fluoroquinolin-8-yl)acetamide] |
| < 100 | < 100 | < 100 | O=C(Cn1c(=O)ccc2ncccc21)Nc1scc(Br)c1-c1ncn[nH]1 [N-(4-bromo-3-(1H-1,2,4-triazol-5-yl)thiophen-2-yl)-2-(2-oxo-1,5-naphthyridin-1(2H)-yl)acetamide] |
| < 100 | < 100 | < 100 | O=C(Cn1c(=O)ccc2cnccc21)Nc1scc(Br)c1-c1ncn[nH]1 [N-(4-bromo-3-(1H-1,2,4-triazol-5-yl)thiophen-2-yl)-2-(2-oxo-1,6-naphthyridin-1(2H)-yl)acetamide] |
| < 100 | < 100 | < 100 | O=C(CN1C(=O)CCc2ncccc21)Nc1scc(Br)c1-c1ncn[nH]1 [N-(4-bromo-3-(1H-1,2,4-triazol-5-yl)thiophen-2-yl)-2-(2-oxo-3,4-dihydro-1,5-naphthyridin-1(2H)-yl)acetamide] |
| < 100 | < 100 | < 100 | O=C(CN1C(=O)CCc2cnccc21)Nc1scc(Br)c1-c1ncn[nH]1 [N-(4-bromo-3-(1H-1,2,4-triazol-5-yl)thiophen-2-yl)-2-(2-oxo-3,4-dihydro-1,6-naphthyridin-1(2H)-yl)acetamide] |
| < 100 | < 100 | < 100 | O=C(CN1C(=O)CCc2ccccc21)Nc1scc(Br)c1-c1ncn[nH]1 [N-(4-bromo-3-(1H-1,2,4-triazol-5-yl)thiophen-2-yl)-2-(2-oxo-3,4-dihydroquinolin-1(2H)-yl)acetamide] |

More lines, now with the values behind:

| SMILES | IC50 [1] [nM] | IC50 [2] [nM] | IC50 [3] [nM] |
| --- | --- | --- | --- |
| COc1ccc(CC(=O)Nc2ccsc2-n2nccn2)cc1 [N-(2-(2H-1,2,3-triazol-2-yl)thiophen-3-yl)-2-(4-methoxyphenyl)acetamide] | 100 to 10000 | 100 to 10000 | 100 to 10000 |
| COc1ccc(CC(=O)Nc2ccsc2-c2nc(C3CC3)n[nH]2)cc1 [N-(2-(3-cyclopropyl-1H-1,2,4-triazol-5-yl)thiophen-3-yl)-2-(4-methoxyphenyl)acetamide] | 100 to 10000 | 100 to 10000 | 100 to 10000 |
| CCc1n[nH]c(-c2sccc2NC(=O)Cc2ccc(OC)cc2)n1 [N-(2-(3-ethyl-1H-1,2,4-triazol-5-yl)thiophen-3-yl)-2-(4-methoxyphenyl)acetamide] | 100 to 10000 | 100 to 10000 | 100 to 10000 |
| Cc1n[nH]c(-c2sccc2NC(=O)Cc2cccc3ccccc23)n1 [N-(2-(3-methyl-1H-1,2,4-triazol-5-yl)thiophen-3-yl)-2-(naphthalen-1-yl)acetamide] | 100 to 10000 | 100 to 10000 | 100 to 10000 |
| COc1ccc(CC(=O)Nc2ccsc2-c2nc(C(C)(C)C)n[nH]2)cc1 [N-(2-(3-tert-butyl-1H-1,2,4-triazol-5-yl)thiophen-3-yl)-2-(4-methoxyphenyl)acetamide] | 100 to 10000 | 100 to 10000 | > 10000 |
| COc1ccc(CC(=O)Nc2ccsc2-c2nnc(C(C)C)o2)cc1 [N-(2-(5-isopropyl-1,3,4-oxadiazol-2-yl)thiophen-3-yl)-2-(4-methoxyphenyl)acetamide] | > 10000 | > 10000 | > 50000 |
| Cc1nnc(-c2sccc2NC(=O)Cc2cccc3ccccc23)o1 [N-(2-(5-methyl-1,3,4-oxadiazol-2-yl)thiophen-3-yl)-2-(naphthalen-1-yl)acetamide] | 100 to 10000 | 100 to 10000 | > 10000 |
| COCn1nnnc1-c1ccsc1NC(=O)Cc1ccc(OC)cc1 [N-(3-(1-(methoxymethyl)-1H-tetrazol-5-yl)thiophen-2-yl)-2-(4-methoxyphenyl)acetamide] | 100 to 10000 | 100 to 10000 | > 50000 |
| N#Cc1csc(NC(=O)Cn2c(=O)ccc3cc(C(F)(F)F)ccc32)c1-n1nnc2ccccc21 [N-(3-(1H-benzo[d][1,2,3]triazol-1-yl)-4-cyanothiophen-2-yl)-2-(2-oxo-6-(trifluoromethyl)quinolin-1(2H)-yl)acetamide] | 100 to 10000 | 100 to 10000 | 100 to 10000 |
| COCn1nnc(-c2ccsc2NC(=O)Cc2ccc(OC)cc2)n1 [N-(3-(2-(methoxymethyl)-2H-tetrazol-5-yl)thiophen-2-yl)-2-(4-methoxyphenyl)acetamide] | > 50000 | > 50000 | > 50000 |
| Cc1csc(NC(=O)Cc2cccc3cnccc23)c1-c1nc2ccccc2s1 [N-(3-(benzo[d]thiazol-2-yl)-4-methylthiophen-2-yl)-2-(isoquinolin-5-yl)acetamide] | 100 to 10000 | 100 to 10000 | > 10000 |
| O=C(Cc1cccc2cnccc12)Nc1scnc1-c1ncn[nH]1 [N-(4-(1H-1,2,4-triazol-5-yl)thiazol-5-yl)-2-(isoquinolin-5-yl)acetamide] | 100 to 10000 | 100 to 10000 | 100 to 10000 |
